Results: patent publication US20050090529A1, “3,5 Disubstituted indazole compounds with nitrogen-bearing 5-membered heterocycles, pharmaceutical compositions, and methods for mediating or inhibiting cell proliferation” (PFIZER INC, priority 2003, published 2005)
≈ marks a conversion by molar mass, not a printed value.

Key:
[1] = target: T1, CDK2/Cyclin A (Homo sapiens, UniProt P24941); assay: Inhibition of CDK2/Cyclin A retinoblastoma kinase activity (apparent Ki); assay type: biochemical; conditions: read-out: CDK2 Ki
T1 construct: made in house; host or cells: CDK2: insect cells (baculovirus); cyclin A: E. coli
Method: Cyclin-dependent kinase activity was measured by quantifying the enzyme-catalyzed, time-dependent incorporation of radioactive phosphate from [^32P]ATP or [^33P]ATP into a protein substrate. […] Reactions were initiated with enzyme, incubated at 30° C., and terminated after 20 minutes by the addition of ethylenediaminetetraacetic acid (EDTA) to 250 mM. […] Radioactivity was quantified by exposing the dried membranes to a phosphorimager.
Apparent Ki values were measured by assaying enzyme activity in the presence of different inhibitor compound concentrations and subtracting the background radioactivity measured in the absence of enzyme. Inhibition data were fit to an equation for competitive inhibition using Kaleidagraph (Synergy Software), or were fit to an equation for competitive tight-binding inhibition using the software KineTic (BioKin, Ltd.).
A complex of CDK2 and proteolyzed cyclin A was prepared and purified by gel filtration. […] Ki values were measured as described above.

[2] = Measurement of kinetic solubility; conditions: 100 mM sodium phosphate buffer, pH 6.5, aqueous buffer, kinetic from dmso stock
Method: Kinetic solubility was determined with a […] stock solution from the compound(s) of interest. […] Samples and standards were then centrifuged and an aliquot was removed for HPLC analysis. Samples and standards were analyzed by HPLC and a final concentration for the sample was determined based on a one-point calibration curve from the corresponding standard. Results were reported as μg's/mL.

| Ki [1] | solubility [2] | Compound |
| --- | --- | --- |
| < 50 nM | > 120 µg/mL | CCNCc1cncc(-c2ccc3[nH]nc(-c4nc(CC)c(CC)[nH]4)c3c2)c1C [Example 22, {5-[3-(4,5-Diethyl-1H-imidazol-2-yl)-1H-indazol-5-yl]-4-methyl-pyridin-3-ylmethyl}-ethyl-amine] |
| < 50 nM | > 120 µg/mL | CCNCc1cncc(-c2ccc3[nH]nc(-c4nc(CC)c(C)[nH]4)c3c2)c1C [Example 23, Ethyl-{5-[3-(4-ethyl-5-methyl-1H-imidazol-2-yl)-1H-indazol-5-yl]-4-methyl-pyridin-3-ylmethyl}-amine] |
| < 50 nM | > 120 µg/mL | CCNCc1cncc(-c2ccc3[nH]nc(-c4nc(C)c(C)[nH]4)c3c2)c1C [Example 24, {5-[3-(4,5-Dimethyl-1H-imidazol-2-yl)-1H-indazol-5-yl]-4-methyl-pyridin-3-ylmethyl}-ethyl-amine] |
| < 50 nM | 20 to 120 µg/mL (≈ 43.8 to 263 µM) | CCNCc1cncc(-c2ccc3[nH]nc(-c4nc(-c5ccc(Cl)cc5)c(C)[nH]4)c3c2)c1C [Example 25, (5-{3-[4-(4-Chloro-phenyl)-5-methyl-1H-imidazol-2-yl]-1H-indazol-5-yl}-4-methyl-pyridin-3-ylmethyl)-ethyl-amine] |
| < 50 nM | < 20 µg/mL | CCNCc1cncc(-c2ccc3[nH]nc(-c4nc(-c5cc(Cl)cc(Cl)c5)c(C)[nH]4)c3c2)c1C [Example 26, (5-{3-[4-(3,5-Dichloro-phenyl)-5-methyl-1H-imidazol-2-yl]-1H-indazol-5-yl}-4-methyl-pyridin-3-ylmethyl)-ethyl-amine] |
| < 50 nM | < 20 µg/mL | CCNCc1cncc(-c2ccc3[nH]nc(-c4nc(-c5cccc(C(F)(F)F)c5)c(C)[nH]4)c3c2)c1C [Example 27, Ethyl-(4-methyl-5-{3-[5-methyl-4-(3-trifluoromethyl-phenyl)-1H-imidazol-2-yl]-1H-indazol-5-yl}-pyridin-3-ylmethyl)-amine] |
| < 50 nM | 20 to 120 µg/mL (≈ 40.8 to 245 µM) | CCNCc1cncc(-c2ccc3[nH]nc(-c4nc(-c5ccc(C(F)(F)F)cc5)c(C)[nH]4)c3c2)c1C [Example 28, Ethyl-(4-methyl-5-{3-[5-methyl-4-(4-trifluoromethyl-phenyl)-1H-imidazol-2-yl]-1H-indazol-5-yl}-pyridin-3-ylmethyl)-amine] |
| < 50 nM | 20 to 120 µg/mL (≈ 47.3 to 284 µM) | CCNCc1cncc(-c2ccc3[nH]nc(-c4nc(-c5ccccc5)c(C)[nH]4)c3c2)c1C [Example 29, Ethyl-{4-methyl-5-[3-(5-methyl-4-phenyl-1H-imidazol-2-yl)-1H-indazol-5-yl]-pyridin-3-ylmethyl}-amine] |
| < 50 nM | 20 to 120 µg/mL (≈ 49 to 294 µM) | CCNCc1cncc(-c2ccc3[nH]nc(-c4nc(-c5ccccc5)c[nH]4)c3c2)c1C [Example 30, Ethyl-{4-methyl-5-[3-(4-phenyl-1H-imidazol-2-yl)-1H-indazol-5-yl]-pyridin-3-ylmethyl}-amine] |
| < 50 nM | 20 to 120 µg/mL (≈ 46.9 to 281 µM) | CCNCc1cncc(-c2ccc3[nH]nc(-c4nc(-c5ccc(F)cc5)c[nH]4)c3c2)c1C [Example 31, Ethyl-(5-{3-[4-(4-fluoro-phenyl)-1H-imidazol-2-yl]-1H-indazol-5-yl}-4-methyl-pyridin-3-ylmethyl)-amine] |
| < 50 nM | > 120 µg/mL | CCNCc1cncc(-c2ccc3[nH]nc(-c4nc(-c5cccc(F)c5)c[nH]4)c3c2)c1C [Example 32, Ethyl-(5-{3-[4-(3-fluoro-phenyl)-1H-imidazol-2-yl]-1H-indazol-5-yl}-4-methyl-pyridin-3-ylmethyl)-amine] |
| < 50 nM | 20 to 120 µg/mL (≈ 45.6 to 274 µM) | CCNCc1cncc(-c2ccc3[nH]nc(-c4nc(-c5cccc(OC)c5)c[nH]4)c3c2)c1C [Example 35, Ethyl-(5-{3-[4-(3-methoxy-phenyl)-1H-imidazol-2-yl]-1H-indazol-5-yl}-4-methyl-pyridin-3-ylmethyl)-amine] |
| < 50 nM | > 120 µg/mL | COCc1cncc(-c2ccc3[nH]nc(-c4nc5c([nH]4)CCCC5)c3c2)c1C [Example 41, 5-(5-Methoxymethyl-4-methyl-pyridin-3-yl)-3-(4,5,6,7-tetrahydro-1H-benzoimidazol-2-yl)-1H-indazole] |
| 50 to 200 nM | > 120 µg/mL | COCc1cncc(-c2ccc3[nH]nc(-c4ncc[nH]4)c3c2)c1C [Example 42, 3-(1H-Imidazol-2-yl)-5-(5-methoxymethyl-4-methyl-pyridin-3-yl)-1H-indazole] |
| 50 to 200 nM | 20 to 120 µg/mL (≈ 51.6 to 310 µM) | CCOCc1cncc(-c2ccc3[nH]nc(-c4nc5c([nH]4)CCCC5)c3c2)c1C [Example 43, 5-(5-Ethoxymethyl-4-methyl-pyridin-3-yl)-3-(4,5,6,7-tetrahydro-1H-benzoimidazol-2-yl)-1H-indazole] |
| 50 to 200 nM | > 120 µg/mL | CCOCc1cncc(-c2ccc3[nH]nc(-c4ncc[nH]4)c3c2)c1C [Example 44, 5-(5-Ethoxymethyl-4-methyl-pyridin-3-yl)-3-(1H-imidazol-2-yl)-1H-indazole] |
| < 50 nM | > 120 µg/mL | CCNCc1cncc(-c2ccc3[nH]nc(-c4nc5c([nH]4)CCCC5)c3c2)c1CC [Example 46, Ethyl-{4-ethyl-5-[3-(4,5,6,7-tetrahydro-1H-benzoimidazol-2-yl)-1H-indazol-5-yl]-pyridin-3-ylmethyl}-amine] |
| < 50 nM | > 120 µg/mL | CCNCc1cncc(-c2ccc3[nH]nc(-c4ncc[nH]4)c3c2)c1CC [Example 47, Ethyl-{4-ethyl-5-[3-(1H-imidazol-2-yl)-1H-indazol-5-yl]-pyridin-3-ylmethyl}-amine] |
| < 50 nM | > 120 µg/mL | Cc1c(CNC(C)C)cncc1-c1ccc2[nH]nc(-c3ncc[nH]3)c2c1 [Example 48, {5-[3-(1H-Imidazol-2-yl)-1H-indazol-5-yl]-4-methyl-pyridin-3-ylmethyl}-isopropyl-amine] |
| < 50 nM | > 120 µg/mL | CCNCc1cncc(-c2ccc3[nH]nc(-c4nc(C(=O)NCc5cccnc5)c[nH]4)c3c2)c1C [Example 49, 2-(5-{5-[(ethylamino)methyl]-4-methylpyridin-3-yl}-1H-indazol-3-yl)-N-(pyridin-3-ylmethyl)-1H-imidazole-5-carboxamide] |
| < 50 nM | 20 to 120 µg/mL (≈ 43.7 to 262 µM) | CCNCc1cncc(-c2ccc3[nH]nc(-c4nc(C(=O)NC5CCCCC5)c[nH]4)c3c2)c1C [Example 50, N-cyclohexyl-2-(5-{5-[(ethylamino)methyl]-4-methylpyridin-3-yl}-1H-indazol-3-yl)-1H-imidazole-5-carboxamide] |
| < 50 nM | 20 to 120 µg/mL (≈ 40.7 to 244 µM) | CCNCc1cncc(-c2ccc3[nH]nc(-c4ncc(C(=O)N[C@@H]5CCc6ccccc65)[nH]4)c3c2)c1C [Example 51, N-[(1R)-2,3-dihydro-1H-inden-1-yl]-2-(5-{5-[(ethylamino)methyl]-4-methylpyridin-3-yl}-1H-indazol-3-yl)-1H-imidazole-5-carboxamide] |
| < 50 nM | 20 to 120 µg/mL (≈ 40.7 to 244 µM) | CCNCc1cncc(-c2ccc3[nH]nc(-c4ncc(C(=O)N[C@H]5CCc6ccccc65)[nH]4)c3c2)c1C [Example 53, N-[(1S)-2,3-dihydro-1H-inden-1-yl]-2-(5-{5-[(ethylamino)methyl]-4-methylpyridin-3-yl]-1H-indazol-3-yl)-1H-imidazole-5-carboxamide] |
| < 50 nM | > 120 µg/mL | CCNCc1cncc(-c2ccc3[nH]nc(-c4ncc(C(=O)NCCN(C)C)[nH]4)c3c2)c1C [Example 54, N-[2-(dimethylamino)ethyl]-2-(5-{5-[(ethylamino)methyl]-4-methylpyridin-3-yl}-1H-indazol-3-yl)-1H-imidazole-5-carboxamide] |
| < 50 nM | > 120 µg/mL | CCNCc1cncc(-c2ccc3[nH]nc(-c4ncc(C(=O)N5CCOCC5)[nH]4)c3c2)c1C [Example 55, N-[(4-methyl-5-{3-[5-(morpholin-4-ylcarbonyl)-1H-imidazol-2-yl]-1H-indazol-5-yl}pyridin-3-yl)methyl]ethanamine] |
| < 50 nM | 20 to 120 µg/mL (≈ 46.6 to 279 µM) | CCNCc1cncc(-c2ccc3[nH]nc(-c4ncc(C(=O)N5CCCC5)[nH]4)c3c2)c1C [Example 61, N-[(4-methyl-5-{3-[5-(pyrrolidin-1-ylcarbonyl)-1H-imidazol-2-yl]-1H-indazol-5-yl}pyridin-3-yl)methyl]ethanamine] |
| < 50 nM | > 120 µg/mL | CCNCc1cncc(-c2ccc3[nH]nc(-c4nc(C(=O)N5CCCCC5)c[nH]4)c3c2)c1C [Example 62, N-[(4-methyl-5-{3-[5-(piperidin-1-ylcarbonyl)-1H-imidazol-2-yl]-1H-indazol-5-yl}pyridin-3-yl)methyl]ethanamine] |
| < 50 nM | > 120 µg/mL | CCNCc1cncc(-c2ccc3[nH]nc(-c4nc(C(=O)NCC)c[nH]4)c3c2)c1C [Example 63, N-ethyl-2-(5-{5-[(ethylamino)methyl]-4-methylpyridin-3-yl}-1H-indazol-3-yl)-1H-imidazole-5-carboxamide] |
| < 50 nM | > 120 µg/mL | CCNCc1cncc(-c2ccc3[nH]nc(-c4nc(C(=O)NC(C)C)c[nH]4)c3c2)c1C [Example 64, 2-(5-{5-[(ethylamino)methyl]-4-methylpyridin-3-yl}-1H-indazol-3-yl)-N-isopropyl-1H-imidazole-5-carboxamide] |
